Earlier results in patent US12691120B2, “Liquid oral formulations for PDE V inhibitors” (LIQMEDS WORLDWIDE LIMITED, priority 2017, dated 2026).
Structures can show the parent of a compound that is named as a salt. Where two headings read alike, the source gives them in different places.

Columns and labels:
[1] = measured using rats
[2] = oral administration
[3] = tablets or oral suspension
[4] = EMEA CHMP Assessment Report for Vizarsin
[5] = Jordanian Pharmaceutical Manufacturing Co.

| water solubility | bioavailability [1] [%] | average time required to reach the maximum blood concentration (Cmax) [2] [h] | solubility in acetone [4] | solubility in chloroform [4] | solubility in dimethylsulfoxide (DMSO) [4] | solubility in ethanol [4] | solubility in methanol [4] | solubility in ethanol [5] | times less soluble in ethanol than in water [5] | absolute bioavailability [3] | Compound |
| --- | --- | --- | --- | --- | --- | --- | --- | --- | --- | --- | --- |
| about 2 μg/mL | 20.5 | 2 | – | – | – | – | – | – | – | – | CN1CC(=O)N2[C@H](c3ccc4c(c3)OCO4)c3[nH]c4ccccc4c3C[C@@H]2C1=O [Tadalafil] |
| – | – | – | insoluble | insoluble | soluble | insoluble | soluble | ~ 1 mg/ml | about 3.5 times | about 41% | CCCc1nn(C)c2c(=O)[nH]c(-c3cc(S(=O)(=O)N4CCN(C)CC4)ccc3OCC)nc12 [Sildenafil citrate] |
